Laboratory results reported in ChEMBL document CHEMBL1130087, “Phosphodiester amidates of unsaturated nucleoside analogues: synthesis and anti-HIV activity” (J Med Chem, 1997).

Tests used:
liver esterase = assay: Half-life catalyzed by Pig Liver Esterase; type: ADME, Sus scrofa
ATH-8 cell line = assay: tested for cytotoxicity of HIV-1 replication in ATH-8 cells; type: functional, Homo sapiens
[1] = target: Human immunodeficiency virus 1; assay: tested for its anti-HIV activity.

Row | SMILES | half-life (liver esterase) [h] | EC50 [1] [µM] | Cytotoxicity (ATH-8 cell line) [µM]
1 | COC(=O)C(C)NP(=O)(OC/C=C/Cn1cnc2c(N)ncnc21)Oc1ccccc1 (configuration not stated) | 57.1 | – | >10
2 | COC(=O)C(C)NP(=O)(OCC=C=Cn1cnc2c(N)ncnc21)Oc1ccccc1 (configuration not stated) | 7.3 | – | –
3 | Nc1ncnc2c1ncn2C/C=C/CCOCP(=O)(O)O | – | 9 | –
4 | COC(=O)C(C)NP(=O)(OCC=C=Cn1cnc2c(O)ncnc21)Oc1ccccc1 (configuration not stated) | 8.5 | – | –

Further lines, with some results ahead:

Row | half-life (liver esterase) [h] | EC50 [1] [µM] | SMILES | Cytotoxicity (ATH-8 cell line) [µM]
5 | 58.3 | – | COC(=O)C(C)NP(=O)(OC/C=C\Cn1cnc2c(O)ncnc21)Oc1ccccc1 (configuration not stated) | –
6 | 43.5 | – | COC(=O)C(C)NP(=O)(OC/C=C\Cn1cnc2c(N)ncnc21)Oc1ccccc1 (configuration not stated) | –
